Results reported in paper PMC6934184, “Selective DNA-PKcs inhibition extends the therapeutic index of localized radiotherapy and chemotherapy” (The Journal of Clinical Investigation, 2019).

Target: T1, CDK2/cyclin A1 (Homo sapiens, UniProt P24941)
T1 construct: purchased Thermo Fisher Scientific (Life Technologies) SelectScreen
Experiment: SelectScreen LanthaScreen
Assay type: binding
Conditions: 1 µM
How it was run: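 SelectScreen broad panel; activity (Z'LYTE, Adapta) plus binding formats. ATP: Km app for CSF1R Z'LYTE; 10 for CAMK1 Adapta. Readout = % per kinase.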

Structure (SMILES): CN(C(=O)CN1CCOCC1)c1ccc2sc3c(-c4cccc5c(=O)cc(N6CC7CCC(C6)O7)oc45)cccc3c2c1 [NU5455]
- % displacement: -1.6%
